Source: US11717531B2, “Preeclampsia” (ASTON UNIVERSITY, priority 2015, dated 2023)

Legend:
[1] = system: preeclampsia; conditions: low-dose, started before 16 weeks' gestation, high-risk women; cited from earlier work
[2] = system: miR-374b; experiment: qPCR of miR-374b expression in treated HUVEC; format: cell-based, human; conditions: 24 hours
Procedure: (§1) FIG. 2. MiR-122 and miR-374b are regulated by various agents that regulate sFlt-1 release. HUVEC cells were treated with 10 uM Hemin (A), 2 uM or 20 uM Pravastatin (B) 20 ng/ml VEGF-A (C) or 20 ng/ml VEGF-E (D) for 24 hours. Total RNA of the treated cells was isolated and the expression of miR-122 and miR-374b was measured by quantitative PCR. The relative miR-122 and miR-374b expression was normalized to RNU6.
(§2) FIG. 3. Hmox1 regulates miR-122 and miR-374b expression. HUVEC cells were infected by adenovirus overexpressiong Hmox1 (A) or transfected with siRNA against Hmox1 (B) for 24 hours and the relative expression of miR-122 and miR-374b was measured by qPCR.
(§3) Human umbilical vein endothelial cells (HUVECs) were isolated and cultured in M199 medium as described previously (Bussolati et al, 2001). Experiments were performed on third or fourth passage HUVEC.
(§4) Sample preparation and real-time quantitative PCR was performed as described previously (Cudmore et al., 2007).

[3] = system: miR-122; experiment: qPCR of miR-122 expression in treated HUVEC; format: cell-based, human; conditions: 24 hours
Procedure: as §1, §2, §3, §4

[4] = system: miR-152; experiment: qPCR of miR-152 expression in HUVEC; format: cell-based, human; conditions: growth factor 20 ng/ml, 24 hours
Procedure: FIG. 9 Hypoxia, inflammatory cytokine or angiogenic growth factor stimulation increases microRNA-152 expression in endothelial cells and placental explants. Human placental explants was treated with (A) inflammatory cytokine mix (TNF-α, 20 ng/ml, IFN-γ, 20 ng/ml and IL-1β, 2 ng/ml), (B) hypoxia (1% 02) condition or (C) combination of cytokine mix and hypoxia condition and assayed for miR-152 expression using qPCR. Similarly, HUEVC cells were treated with (D) hypoxia (1% 02) condition, VEGF-E (20 ng/ml, E) or FGF-2 (20 ng/ml, F) for 24 hours and used for qPCR analysis of miR-152 expression. Moreover, overexpression of miR-152 inhibited PlGF release, but not the sFlt-1 and sEng in endothelial cells. HUVECs were electroporated with mimic-152 or control mimic-con. After resting for 24 hours, the transfected cells were treated with vehicle or VEGF-E (20 ng/ml) in the conditioned media. […] Data is shown as mean+SEM and analyzed by Student t-test.
Human umbilical vein endothelial cells (HUVECs) were isolated and cultured in M199 medium as described previously (Bussolati et al, 2001). […] Briefly, human placental villus explants were incubated under stimulation of test substances or hypoxia condition and collected for quantitative PCR of miR-152. […]
as §4

[5] = system: miR-144; experiment: qPCR of miR-144 expression in treated HUVEC; format: cell-based, human; conditions: hemin 10 uM
Procedure: as §3, §4

[6] = system: sFlt-1; experiment: sFlt-1 release from HUVEC, ELISA of conditioned media; format: cell-based, human; conditions: 24 hours
Procedure: as §3
Chemically synthesized double-stranded microRNA mimic and single-stranded inhibitor against miR-122 (mi-122 and anti-122) and miR-374b (mi-374b and anti-374b) were purchased from Qiagen and the efficiency was tested by Qpcr (FIG. 6A, B). HUVECs were trypsinized, and 1×10^6 cells were electroporated with ≈0.6 ug mimic-122 or mimic-374b, =3 ug anti-122 or anti-374 or control molecules using electroporation (Amaxa GmbH, Cologne, Germany) as described previously (Cudmore et al., 2007).
Enzyme-linked immunosorbent assay (ELISA) kits for human sFlt-1 was obtained from R&D Systems and performed according to the manufacturer's specifications.
Enzyme-linked immunosorbent assay (ELISA) kits for human sFlt-1, sEng and P1GF were obtained from R&D Systems and performed according to the manufacturer's specifications.

Compound: CC(=O)Oc1ccccc1C(=O)O [aspirin]
- prevention of PE, severe PE and IUGR [1]: up to 50%

Compound: CC[C@H](C)C(=O)O[C@H]1C[C@H](O)C=C2C=C[C@H](C)[C@H](CC[C@@H](O)C[C@@H](O)CC(=O)O)[C@H]21 [pravastatin]
- induction of miR-374b expression ([2]; pravastatin 2 uM and 20 uM): 2.7 fold
- induction of miR-122 expression ([3]; pravastatin 2 uM and 20 uM): 3-9 fold

Compound: FGF-2: angiogenic growth factor used at 20 ng/ml
- elevation of miR-152 expression [4]: ~65%

Compound: hemin
- increase of miR-374b expression ([2]; hemin 10 uM): 2.7 fold
- effect on miR-144 expression [5]: no significant effect
- increase of miR-122 expression ([3]; hemin 10 uM): 20 fold
- recovery of hemin-reduced sFlt-1 release by VEGF-E stimulation ([6]; hemin 10 uM plus VEGF-E): cannot be recovered
- sFlt-1 release in endothelial cells ([6]; hemin 10 uM): decreased

Compound: vascular endothelial growth factor A [VEGF-A]
- reduction of miR-374b expression ([2]; growth factor 20 ng/ml): 20%
- decrease of miR-122 expression ([3]; growth factor 20 ng/ml): 47%
